Measurements as given in patent publication US20260028354A1, “TETRAHYDRONAPHTHALENE DERIVATIVES AS ESTROGEN RECEPTOR DEGRADERS” (REGENT OF THE UNIVERSITY OF MICHIGAN, priority 2022, published 2026).
Read-outs that look alike come from different tables or passages of the source.

Tests used:
[1] = biological target: ER in T47D cells (Homo sapiens (Human), UniProt P03372); experiment: In-cell Western (ICW) ER degradation assay in T47D cells; type: cell-based; settings: for DC50: ER degradation
[2] = biological target: ER in MCF-7 cells (Homo sapiens (Human), UniProt P03372); experiment: In-cell Western (ICW) ER degradation assay in MCF-7 cells; type: cell-based; settings: for DC50: MCF-7, ER degradation, read-out: MCF7 DC50
[3] = biological target: ERα_LBD (GST) (Homo sapiens (Human), UniProt P03372); experiment: IC50 measurements for binding to ERα_LBD (GST), LanthaScreen TR-FRET competitive binding; settings: ERα_LBD (GST) 4 nM, Fluormone ES2 Green tracer, 60 min; read-out: ERα HTRF IC50
Procedure: In vitro Assay: IC50 Measurements for binding to ERα_LBD (GST) • Final assay conditions: • 1. ERα_LBD (GST) protein: 4 nM • 2. Tb Anti-GST: 2 nM • 3. Fluormone ES2 Green tracer: 3 nM • 4. Incubation time: 60 min • 5. DMSO: 1% • 6. Assay buffer: Adding 1M DTT to Nuclear receptor Buffer K for final 5 mM DTT. • 7. ZPE: 1% DMSO • 8. HPE: 1 μM ARV_471 (positive control) • 9. LanthaScreen® TR-FRET ERα Competitive Binding Assay (ThermoFisher, #A^15887) • 100× Compound preparation
1) Cherry pick 2 μL 10 mM compound stock to column 1 of a 384 intermediate plate. • 2) Add 18 μL DMSO to column 1 to dilute compound to 1 mM. • 3) Transfer 10 μL 1 mM compound to column 1 of a LDV plate. • 2) Add 6 μl DMSO to column 2-10 of the LDV plate. • 3) Compounds undergo 3-fold serial dilution (3 μL+6 μL) in DMSO. • 4) Transfer 120 nL compound solution to assay plate. ZPE: 120 nL 100% DMSO • Procedure:
Complete nuclear receptor buffer K was prepared by adding 1 M DTT to nuclear receptor buffer K for a final concentration of 5 mM DTT. Complete nuclear receptor buffer K must be prepared fresh daily, 2X protein solution was prepared using complete nuclear receptor buffer K containing 8 nM ERα_LBD (GST) and 4 nM Tb Anti-GST. Then, 2X Fluormone ES2 Green tracer (6 nM) was prepared using complete nuclear receptor buffer K. Add 6 μL 2X Fluormone ES2 green tracer into a compound plate (PerkinElmer 6008289) by dragonfly with one-tips-addition. Subsequently, 6 μL 2× protein solution was added into the plate. The 384-well plate was mixed on a plate shaker and incubated at room temperature protected from light for 60 min. The plate was scaled with a cover to minimize evaporation. The plate was read at wavelengths of 520 nm and 495 nm. The TR-FRET ratio was calculated by dividing the emission signal at 520 nm by the emission signal at 495 nm. A binding curve was generated by plotting the emission ratio vs, the log [ligand]. To determine the IC50 value, fit the data using XL-fit for a sigmoidal dose-response.

[4] = system: MCF-7 cells; experiment: CellTiter-Glo (CTG) cell proliferation assay in MCF-7 cells; type: cell-based; settings: Homo sapiens, MCF7, 144 h, MCF-7 cell proliferation, Day 6
Text: CellTiter-Glo® (CTG) Assays in MCF-7 and T47D Cell Lines.
In vitro Assay: MCF-7 and T47D CTG assay

[5] = biological target: CRBN/DDB1 (Homo sapiens (Human), UniProt Q96SW2); type: binding; settings: His tagged CRBN+DDB1, Cy5-labeled Thalidomide probe, one hour; read-out: CRBN HTRF IC50
Procedure: The binding potency was determined using HTRF assay technology (Perkin Elmer). Compounds were serially diluted in DMSO and […] volume was transferred to white 384-well plate.

[6] = maximal ER degradation, 16 hrs treatment, read-out: T47D Dmax
[7] = MCF7, MCF-7, maximal ER degradation, 16 hrs treatment, read-out: MCF7 Dmax
[8] = read-out: T47D Dmax, T47D, maximal ER degradation, 16 hrs treatment
[9] = MCF7, read-out: MCF7 Dmax, MCF-7, maximal ER degradation, 16 hrs treatment

Chain of ER in MCF-7 cells (P03372 whole entry): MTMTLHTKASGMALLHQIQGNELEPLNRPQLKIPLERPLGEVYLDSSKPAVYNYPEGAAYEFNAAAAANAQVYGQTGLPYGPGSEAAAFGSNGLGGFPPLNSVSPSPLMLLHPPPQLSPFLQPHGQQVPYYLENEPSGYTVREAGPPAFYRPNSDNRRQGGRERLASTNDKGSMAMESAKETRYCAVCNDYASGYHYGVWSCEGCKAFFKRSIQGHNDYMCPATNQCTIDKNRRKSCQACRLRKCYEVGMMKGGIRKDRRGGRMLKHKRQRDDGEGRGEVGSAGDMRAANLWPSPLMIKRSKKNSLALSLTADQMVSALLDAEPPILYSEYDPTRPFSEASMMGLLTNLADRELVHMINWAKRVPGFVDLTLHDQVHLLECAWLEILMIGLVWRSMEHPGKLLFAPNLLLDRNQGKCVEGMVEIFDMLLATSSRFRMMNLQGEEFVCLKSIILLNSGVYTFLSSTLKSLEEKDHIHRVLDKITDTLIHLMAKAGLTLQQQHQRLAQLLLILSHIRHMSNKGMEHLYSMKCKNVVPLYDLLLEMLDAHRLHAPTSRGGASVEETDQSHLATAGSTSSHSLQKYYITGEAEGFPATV
Chain of ER in T47D cells (P03372 whole entry): as above
Chain of ERα_LBD (GST) (P03372 311-547): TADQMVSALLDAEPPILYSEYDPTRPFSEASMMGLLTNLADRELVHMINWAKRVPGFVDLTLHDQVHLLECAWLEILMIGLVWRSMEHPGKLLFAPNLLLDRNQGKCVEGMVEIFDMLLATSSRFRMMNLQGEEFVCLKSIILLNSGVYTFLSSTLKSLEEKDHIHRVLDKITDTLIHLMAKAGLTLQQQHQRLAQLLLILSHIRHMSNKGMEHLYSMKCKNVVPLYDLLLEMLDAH
Chain of CRBN/DDB1 (Q96SW2 whole entry, species assumed): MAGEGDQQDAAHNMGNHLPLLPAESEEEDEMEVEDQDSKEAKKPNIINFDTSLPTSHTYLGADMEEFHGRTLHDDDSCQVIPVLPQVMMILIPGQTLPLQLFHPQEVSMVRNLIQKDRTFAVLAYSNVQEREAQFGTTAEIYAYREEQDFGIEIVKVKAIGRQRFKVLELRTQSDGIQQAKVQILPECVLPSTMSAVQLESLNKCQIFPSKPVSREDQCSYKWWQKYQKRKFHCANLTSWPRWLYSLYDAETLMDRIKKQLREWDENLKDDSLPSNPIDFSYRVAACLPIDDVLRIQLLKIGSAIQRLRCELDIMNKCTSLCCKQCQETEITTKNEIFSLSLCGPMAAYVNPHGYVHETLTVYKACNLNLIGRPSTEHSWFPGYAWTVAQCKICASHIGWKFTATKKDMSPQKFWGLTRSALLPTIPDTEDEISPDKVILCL
Chain of CRBN/DDB1 (Q16531 whole entry partner, species assumed): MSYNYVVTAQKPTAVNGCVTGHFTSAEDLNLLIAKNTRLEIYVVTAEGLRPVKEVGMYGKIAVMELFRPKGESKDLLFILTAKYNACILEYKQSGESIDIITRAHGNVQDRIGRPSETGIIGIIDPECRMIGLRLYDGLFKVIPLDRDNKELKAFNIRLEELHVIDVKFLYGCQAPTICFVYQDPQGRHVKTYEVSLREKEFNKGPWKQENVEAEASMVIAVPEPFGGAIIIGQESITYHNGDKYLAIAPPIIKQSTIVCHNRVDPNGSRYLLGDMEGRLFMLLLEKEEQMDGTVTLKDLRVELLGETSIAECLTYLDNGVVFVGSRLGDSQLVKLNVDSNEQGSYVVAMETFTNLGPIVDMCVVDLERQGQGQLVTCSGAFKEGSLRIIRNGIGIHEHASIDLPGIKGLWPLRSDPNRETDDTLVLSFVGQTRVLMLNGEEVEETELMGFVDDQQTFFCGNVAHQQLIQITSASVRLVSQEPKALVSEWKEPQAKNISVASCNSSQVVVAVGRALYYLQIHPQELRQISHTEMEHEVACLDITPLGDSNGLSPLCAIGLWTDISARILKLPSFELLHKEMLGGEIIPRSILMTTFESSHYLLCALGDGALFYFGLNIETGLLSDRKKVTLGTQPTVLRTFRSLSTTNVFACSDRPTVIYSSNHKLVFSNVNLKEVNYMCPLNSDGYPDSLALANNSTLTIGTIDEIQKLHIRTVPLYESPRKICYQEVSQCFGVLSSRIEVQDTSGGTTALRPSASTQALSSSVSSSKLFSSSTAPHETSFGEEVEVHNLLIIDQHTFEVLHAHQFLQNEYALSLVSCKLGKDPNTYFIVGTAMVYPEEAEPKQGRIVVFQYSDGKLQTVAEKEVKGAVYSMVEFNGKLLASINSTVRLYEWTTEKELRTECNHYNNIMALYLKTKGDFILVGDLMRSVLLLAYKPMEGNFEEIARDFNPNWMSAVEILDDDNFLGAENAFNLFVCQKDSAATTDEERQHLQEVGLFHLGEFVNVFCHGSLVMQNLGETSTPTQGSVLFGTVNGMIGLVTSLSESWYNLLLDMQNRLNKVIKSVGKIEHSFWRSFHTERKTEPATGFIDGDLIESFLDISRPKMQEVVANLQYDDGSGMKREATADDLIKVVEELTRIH

Compound | DC50 ([1]; 16 hrs treatment) | Dmax [1, 6] | Dmax [2, 7] | DC50 ([2]; 16 hrs treatment) | IC50 [3] | Dmax [1, 8] | Dmax [2, 9] | IC50 [4] | IC50 [5] | MCF7 Dmax ([2]; MCF-7, maximal ER degradation, 16 hrs treatment)
COc1cc(N2CCC3(CC2)CC(CN2CCC(c4ccc(N[C@H]5CCC(=O)NC5=O)cc4)CC2)C3)c(F)cc1[C@H]1c2ccc(O)cc2CC[C@H]1c1ccccc1 (single isomer, unassigned) [Compound A32] | 10 to 100 nM | 50 to 75% | 50 to 75% | 10 to 100 nM | > 100 nM |  |  |  |  | 
COc1cc(N2CCC3(CC2)CC(CN2CCN4c5ccc6c(c5OC[C@H]4C2)CN([C@H]2CCC(=O)NC2=O)C6=O)CO3)ccc1[C@H]1c2ccc(O)cc2CC[C@H]1c1ccccc1 (single isomer, unassigned) [Compound A52] | < 1 nM |  |  | < 1 nM | < 10 nM | > 75% | 50 to 75% |  |  | 
COc1cc(N2CCC3(CC2)CC(CN2CCC4(CC2)COc2cc5c(cc24)CN([C@H]2CCC(=O)NC2=O)C5=O)C3)c(F)cc1[C@@H]1c2ccc(O)cc2CC[C@@H]1c1ccccc1 [Compound A129, (S)-3-(1′-((7-(2-fluoro-4-((1S,2S)-6-hydroxy-2-phenyl-1,2,3,4-tetrahydronaphthalen-1-yl)-5-methoxyphenyl)-7-azaspiro[3.5]nonan-2-yl)methyl)-7-oxo-5,7-dihydro-2H,6H-spiro[furo[2,3-f]isoindole-3,4′-piperidin]-6-yl)piperidine-2,6-dione] | < 1 nM |  |  | < 1 nM | < 10 nM | > 75% | > 75% |  |  | 
COc1cc(N2CCC3(CC2)C[C@H](CN2CCN4c5ccc6c(c5OC[C@H]4C2)CN([C@H]2CCC(=O)NC2=O)C6=O)CO3)ccc1[C@@H]1c2ccc(O)cc2CC[C@@H]1c1ccccc1 (single isomer, unassigned) [Compound A133] |  |  | > 75% | < 1 nM | < 10 nM |  |  |  |  | 
COc1cc(N2CCC3(CC2)C[C@@H](CN2CCN4c5ccc6c(c5OC[C@H]4C2)CN([C@H]2CCC(=O)NC2=O)C6=O)CO3)ccc1[C@@H]1c2ccc(O)cc2CC[C@@H]1c1ccccc1 (single isomer, unassigned) [Compound A134] |  |  | > 75% | < 1 nM | < 10 nM |  |  |  |  | 
O=C1CC[C@@H](Nc2ccc(C3CCN(CC4CCC5(CC4)CN(c4ccc([C@@H]6c7ccc(O)cc7CC[C@@H]6c6ccccc6)cc4)C5)CC3)cc2)C(=O)N1 (single isomer, unassigned) [Compound A65] | < 1 nM | > 75% | 50 to 75% | 1 to 10 nM |  |  |  | 10 to 100 nM | 50 to 500 nM | 
(S)-3-(1′-((2-(2-fluoro-4-((1S,2S)-6-hydroxy-2-phenyl-1,2,3,4-tetrahydronaphthalen-1-yl)-5-methoxyphenyl)-2-azaspiro[3.5]nonan-7-yl)methyl)-7-oxo-5,7-dihydro-2H,6H-spiro[furo[2,3-f]isoindole-3,4′-piperidin]-6-yl)piperidine-2,6-dione [Compound A166] |  |  |  | < 1 nM | < 10 nM |  |  |  |  | B (“B”: >50 and <75%)
COc1cc(N2CCC3(CC2)CC(CN2CCN4c5cc6c(cc5OC[C@@H]4C2)C(=O)N([C@H]2CCC(=O)NC2=O)C6)C3)c(F)cc1[C@@H]1c2ccc(O)cc2CC[C@@H]1c1ccccc1 [Compound A101, (S)-3-((S)-3-((7-(2-fluoro-4-((1S,2S)-6-hydroxy-2-phenyl-1,2,3,4-tetrahydronaphthalen-1-yl)-5-methoxyphenyl)-7-azaspiro[3.5]nonan-2-yl)methyl)-8-oxo-1,2,3,4,4a,5,8,10-octahydro-9H-pyrazino[1′,2′: 4,5][1,4]oxazino[2,3-f]isoindol-9-yl)piperidine-2,6-dione] |  |  | > 75% | < 1 nM | < 10 nM |  |  |  |  | 
COc1cc(N2CCC(CCN3CCC4(CC3)COc3c4cc(OC)c4c3CN([C@H]3CCC(=O)NC3=O)C4=O)CC2)c(F)cc1[C@@H]1c2ccc(O)cc2CC[C@@H]1c1ccccc1 [Compound A226, (S)-3-(1′-(2-(1-(2-fluoro-4-((1S,2S)-6-hydroxy-2-phenyl-1,2,3,4-tetrahydronaphthalen-1-yl)-5-methoxyphenyl)piperidin-4-yl)ethyl)-5-methoxy-6-oxo-6,8-dihydro-2H,7H-spiro[furo[2,3-e]isoindole-3,4′-piperidin]-7-yl)piperidine-2,6-dione] |  |  |  | < 1 nM |  |  | > 75% | < 10 nM |  | 
O=C1CC[C@H](N2Cc3c4c(cc(Cl)c3C2=O)C2(CCN(C[C@H]3CCC5(CCN(c6ccc([C@@H]7c8ccc(O)cc8CC[C@@H]7c7ccccc7)cc6)CC5)OC3)CC2)CO4)C(=O)N1 [Compound A231, (S)-3-(5-chloro-1′-(((R)-9-(4-((1R,2S)-6-hydroxy-2-phenyl-1,2,3,4-tetrahydronaphthalen-1-yl)phenyl)-1-oxa-9-azaspiro[5.5]undecan-3-yl)methyl)-6-oxo-6,8-dihydro-2H,7H-spiro[furo[2,3-e]isoindole-3,4′-pipcridin]-7-yl)piperidine-2,6-dione] |  |  |  | < 1 nM |  |  | > 75% | < 10 nM |  | 
COc1cc(N2CCC(CCN3CCN4c5cc6c(cc5OC[C@@H]4C3)C(=O)N([C@H]3CCC(=O)NC3=O)C6)CC2)c(F)cc1[C@@H]1c2ccc(O)cc2CC[C@@H]1c1ccccc1 [Compound A188, (S)-3-((S)-3-(2-(1-(2-fluoro-4-((1S,2S)-6-hydroxy-2-phenyl-1,2,3,4-tetrahydronaphthalen-1-yl)-5-methoxyphenyl)piper-idin-4-yl)ethyl)-8-oxo-1,2,3,4,4a,5,8,10-octahydro-9H-pyr-azino[1′,2′:4,5][1,4]oxazino [2,3-f]isoindol-9-yl)piperidine-2,6-dione] |  |  | > 75% | < 1 nM |  |  |  | 10 to 100 nM |  | 
Cc1cc2c(c3c1C(=O)N([C@H]1CCC(=O)NC1=O)C3)OCC21CCN(C[C@H]2CCC3(CCN(c4ccc([C@@H]5c6ccc(O)cc6CC[C@@H]5c5ccccc5)cc4)CC3)OC2)CC1 [Compound A210, (S)-3-(1′-(((R)-9-(4-((1R,2S)-6-hydroxy-2-phenyl-1,2,3,4-tetrahydronaphthalen-1-yl)phenyl)-1-oxa-9-azaspiro[5.5]undecan-3-yl)methyl)-5-methyl-6-oxo-6,8-dihydro-2H,7H-spiro[furo[2,3-e]isoindole-3,4′-piperidin]-7-yl)piperidine-2,6-dione] |  |  |  | < 1 nM |  |  | > 75% | < 10 nM |  | 
COc1cc(N2CCC3(CC2)CC(CN2CCN4c5cc6c(cc5OC[C@@H]4C2)C(=O)N([C@H]2CCC(=O)NC2=O)C6)C3)ccc1[C@@H]1c2ccc(O)cc2CC[C@@H]1c1ccccc1 (single isomer, unassigned) [Compound A12] | < 1 nM | > 75% | > 75% | < 1 nM |  |  |  | 10 to 100 nM | 50 to 500 nM | 
COc1cc(N2CCC3(CC2)CC(CN2CCC4(CC2)COc2c4cc(C)c4c2CN([C@H]2CCC(=O)NC2=O)C4=O)C3)c(F)cc1[C@@H]1c2ccc(O)cc2CC[C@@H]1c1ccccc1 [Compound A203, (S)-3-(1′-((7-(2-fluoro-4-((1S,2S)-6-hydroxy-2-phenyl-1,2,3,4-tetrahydronaphthalen-1-yl)-5-methoxyphenyl)-7-azaspiro[3.5]nonan-2-yl)methyl)-5-methyl-6-oxo-6,8-dihydro-2H,7H-spiro[furo[2,3-e]isoindole-3,4′-piperidin]-7-yl)piperidine-2,6-dione] |  |  |  | < 1 nM |  |  | > 75% | < 10 nM |  | 
